# According to patent US20220340983A1, “SYSTEMS AND ASSAYS FOR IDENTIFYING PU.1 INHIBITORS” (Massachustts Institute of Technology, priority 2019, published 2022):
# Columns and labels:
# iPS and ES-microglia [1] = assay: Intracellular neutral lipid accumulation (BODIPY staining) in microglia; assay type: cell-based, human
# Procedure: (§1) Top row: Effect of a 2-day treatment with DPBS (10 μL/mL), IFNγ (25 ng/mL), TNFα (25 ng/mL), TGFβ (25 ng/mL), IL1β (25 ng/mL), LPS (25 ng/mL), ATP (100 nM), CD200 (100 ng/mL), IFNα (25 ng/mL), IL12 (5 ng/mL), CX3CL1 (100 ng/mL), CCL5 (100 ng/mL), PMA (10 ng/mL), IFNβ (10 ng/mL), IL33 (10 ng/mL), and IL4 (100 ng/mL). n=52 for DPBS, n=9 for all other inflammatory molecules, except IL33 where n=3. Bottom row: effect after co-application with A11 (20 nM). Scale bar 10 μm. […] Student's unpaired, two sided t-test, ****P≤0.0001, ***P≤0.001, **P≤0.01, *P≤0.05. […] Top row: An increase in number of cells per well with ≥2 BODIPY-positive structures was observed after a 2-day treatment with IFNγ (25 ng/mL), TNFα (25 ng/mL) and IL33 (10 ng/mL) as compared to DPBS treatment. […] Student's unpaired, two-sided t-test, ***P≤0.001, **P≤0.01, *P≤0.05. […] A 2-day treatment with IFNγ (25 ng/mL) caused increase in ATP levels that was reversed by A11 (20 nM) treatment in iPS (left panel) and ES-microglia (right panel). Student's unpaired, twosided t-test, **P≤0.01. […]
# (§2) FIGS. 17A-17H show results from comparing the effects of multiple inflammatory molecules in iPS-microglia. […] Quantification based on total Vybrant DiI-positive surface area divided by number of Hoechst positive cells per field of view. […]
# [2] = tested on: PU.1 dependent gene expression; assay: RT-qPCR of mRNA levels in BV2 PU.1-Luciferase cells (validation round 3); assay type: cell-based, mouse; settings: 2-day treatment
# iPS and ES-microglia [3] = assay: ELISA for IL1β in microglia supernatant; assay type: cell-based, human
# iPSC-microglia [4] = assay: Morphology of IFN-gamma activated iPSC-microglia; assay type: cell-based, human; settings: IFN-gamma 25 ng/mL 3 days, co-treated with A11 2.5 μM 2 days
# Procedure: (§3) FIGS. 10A-10D show anti-inflammatory properties of A11 after IFNγ treatment on human induced pluripotent stem cell derived microglia. Cell viability is shown in FIG. 10A as measured with CellTiter Glo (Promega) in untreated (vehicle), A11 (2.5 μM) treated, IFNγ (25 ng/mL) treated and A11 +IFNγ treated cells. The morphology (round represent un-activated and elongated, filamentous represent activated by IFNγ) of these same conditions is shown in FIGS. 10B and quantified in FIG. 10C.
# (§4) Human induced pluripotent stem cell derived microglia (iPSC-microglia) were activated with IFN-gamma (25 ng/mL, 3 days) and co-treated with A11 (2.5 μM, 2 days).
# iPS and ES-microglia [5] = assay: ATP levels (CellTiter-Glo luminescence per well) in microglia; assay type: cell-based, human
# Procedure: as §1, §2
# iPSC-microglia [6] = assay: mRNA expression (RTqPCR) in IFN-gamma activated iPSC-microglia; assay type: cell-based, human; settings: IFN-gamma 25 ng/mL 3 days, co-treated with A11 2.5 μM 2 days
# Procedure: as §3, §4
smiles,measurement,setting,value
O=S(=O)(NCc1ccncc1)c1ccc(C2CCCCC2)cc1 [Compound A11],number of cells containing ≥2 BODIPY-positive structures,"iPS and ES-microglia [1]; A11 alone <20 nM, iPS and ES-microglia",no effect
same,"number of cells with ≥2 BODIPY-positive structures, increase by inflammatory molecules","iPS and ES-microglia [1]; iPS-microglia, 2-day treatment with IFNγ, TNFα or IL33 plus A11",reversed this increase
same,mRNA levels Apoe,[2],1.522 multiples of 1×
same,mRNA levels IL1β,[2],0.418 multiples of 1×
same,mRNA levels Lucif.,[2],0.376 multiples of 1×
same,mRNA levels Spi1,[2],1.001 multiples of 1×
same,mRNA levels Trem2,[2],2.051 multiples of 1×
same,mRNA levels Tyrobp,[2],2.101 multiples of 1×
same,"supernatant IL1β levels, increase by IFNγ","iPS and ES-microglia [3]; 2-day IFNγ 25 ng/mL plus A11 20 nM, iPS and ES-microglia",reversed
same,IL1β concentration in the supernatant,"iPS and ES-microglia [3]; A11 alone 20nM, 2-day treatment",did not affect
same,morphology induced by IFN-gamma,iPSC-microglia [4],reversal of the elongated and filamentous morphology induced by IFN-gamma
same,"ATP levels, increase caused by IFNγ",iPS and ES-microglia [5]; 2-day IFNγ 25 ng/mL plus A11 20 nM,reversed
same,amount of ATP per well,iPS and ES-microglia [5]; A11 alone ≤20 nM,no effect
same,CCL2 mRNA expression levels,iPSC-microglia [6],reversal of IL1-beta and CCL2 increases to vehicle treated levels
same,IL1-beta mRNA expression levels,iPSC-microglia [6],reversal of IL1-beta and CCL2 increases to vehicle treated levels
